Test results taken from ChEMBL document CHEMBL1124686.
The source made the active and inactive calls. No cut-off for these calls is given here.

Legend:
[1] = biological target: D(2) dopamine receptor (Mus musculus) (UniProt P61168); experiment: Compound was evaluated for its ability to inhibit the potassium -induced release of [3H]- acetylcholine release in mouse striatal […] by stimulating D2 receptor; settings: Striatum
[2] = biological target: D(2) dopamine receptor (Mus musculus) (UniProt P61168); experiment: Compound was evaluated for its ability to inhibit the potassium -induced release of [3H]- acetylcholine release in mouse striatal […] by stimulating dopamine receptor D2; settings: Striatum
[3] = biological target: D(2) dopamine receptor (Mus musculus) (UniProt P61168); experiment: The dissociation constant for the inhibition of agonist effect on the K+ evoked release of [3H]- acetylcholine in mouse striatal […]; NS means No statistically significant antagonism observed in […]; type: functional
[4] = biological target: D(2) dopamine receptor (Mus musculus) (UniProt P61168); settings: Striatum; Membrane
Description: Compound was evaluated for its ability to inhibit the potassium -induced release of [3H]- acetylcholine release in mouse striatal membranes by stimulating Dopamine receptor D2

D(2) dopamine receptor (Mus musculus), sequence (P61168 whole entry): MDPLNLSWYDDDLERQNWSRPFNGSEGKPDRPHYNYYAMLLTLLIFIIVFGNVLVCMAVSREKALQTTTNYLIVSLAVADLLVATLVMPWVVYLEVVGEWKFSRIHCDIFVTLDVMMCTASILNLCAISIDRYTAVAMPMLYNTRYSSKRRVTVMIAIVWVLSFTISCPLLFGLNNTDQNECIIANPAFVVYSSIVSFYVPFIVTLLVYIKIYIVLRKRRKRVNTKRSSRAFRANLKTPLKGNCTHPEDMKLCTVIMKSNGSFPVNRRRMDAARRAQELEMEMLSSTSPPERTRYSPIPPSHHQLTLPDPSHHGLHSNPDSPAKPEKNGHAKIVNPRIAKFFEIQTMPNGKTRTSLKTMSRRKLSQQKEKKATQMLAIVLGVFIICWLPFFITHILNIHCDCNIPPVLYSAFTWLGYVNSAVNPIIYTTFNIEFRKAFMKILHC

Row | Structure (SMILES) | ED50 [2] [nM] | further results
1 | CC[S+]1CCCC1CNC(=O)c1cc(S(N)(=O)=O)ccc1OC (stereo unspecified) | – | ED50 [1]: 38.4 nM
2 | CC[N+]1(CC)CCCC1CNC(=O)c1cc(S(N)(=O)=O)ccc1OC (stereo unspecified) | 26.3 | –
3 | COc1ccc(S(N)(=O)=O)cc1C(=O)NCC1CCCS1 (stereo unspecified) | 48.1 | Kb [3]: inactive
4 | CCN1CCCC1CNC(=O)c1cc(S(N)(=O)=O)ccc1OC (stereo unspecified) | – | ED50 [4]: 75.9 nM
5 | CC[N+]1(C)CCCC1CNC(=O)c1cc(S(N)(=O)=O)ccc1OC (stereo unspecified) | 25.1 | –
